Experimental findings from patent US20040082635A1, “Fused cyclic compounds and medicinal use thereof” (priority 2001, published 2004) are described below.

Structures can show the parent of a compound that is named as a salt.

T1 sequence (P26663 2420-3010): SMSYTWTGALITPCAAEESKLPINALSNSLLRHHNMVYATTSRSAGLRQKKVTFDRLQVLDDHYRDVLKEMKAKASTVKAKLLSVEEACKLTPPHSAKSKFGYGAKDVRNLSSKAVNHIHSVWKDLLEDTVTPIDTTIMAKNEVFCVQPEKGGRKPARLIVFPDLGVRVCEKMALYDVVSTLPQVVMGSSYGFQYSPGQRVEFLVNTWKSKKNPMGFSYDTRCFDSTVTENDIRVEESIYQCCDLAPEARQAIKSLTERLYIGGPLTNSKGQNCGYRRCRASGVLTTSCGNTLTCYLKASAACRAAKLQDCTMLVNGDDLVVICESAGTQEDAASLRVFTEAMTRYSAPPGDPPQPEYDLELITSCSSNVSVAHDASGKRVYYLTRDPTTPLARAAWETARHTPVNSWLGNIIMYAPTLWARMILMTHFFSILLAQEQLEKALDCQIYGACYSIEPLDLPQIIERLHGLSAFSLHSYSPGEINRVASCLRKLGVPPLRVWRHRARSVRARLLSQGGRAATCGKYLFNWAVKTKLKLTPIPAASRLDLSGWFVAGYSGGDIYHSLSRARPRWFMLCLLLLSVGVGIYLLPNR

This assay addresses T1, HCV polymerase (Hepatitis C virus genotype 1b, UniProt P26663).
T1 construct: a region encoding NS5B (591 amino acids; J Virol 1991 Mar, 65(3), 1105-13) was amplified by PCR; 6 His (N); made in house; host or cells: Escherichia coli
Put plainly: biochemical. The settings on record: read-out: HCV polymerase inhibitory activity IC50.
The IC50 is the concentration that gives 50% inhibition. With `CN(C)c1ccc(-c2ccc(Cl)cc2)c(COc2ccc(-c3nc4cc(C(=O)O)ccc4n3C3CCCCC3)cc2)c1` [Example 282, 2-{4-[2-(4-chlorophenyl)-5-dimethylaminobenzyloxy]phenyl}-1-cyclohexylbenzimidazole-5-carboxylic acid], the IC50 was determined as 19 nM. `CS(=O)(=O)Nc1ccc(-c2ccc(Cl)cc2)c(COc2ccc(-c3nc4cc(C(=O)O)ccc4n3C3CCCCC3)cc2)c1` [Example 283, 2-{4-[2-(4-chlorophenyl)-5-methanesulfonylaminobenzyloxy]phenyl}-1-cyclohexylbenzimidazole-5-carboxylic acid]: the IC50 was 14 nM. To `CCN(CC)C(=O)c1ccc(-c2ccc(Cl)cc2)c(COc2ccc(-c3nc4cc(C(=O)O)ccc4n3C3CCCCC3)c(F)c2)c1` [Example 284, 2-{4-[2-(4-chlorophenyl)-5-diethylcarbamoylbenzyloxy]-2-fluorophenyl}-1-cyclohexylbenzimidazole-5-carboxylic acid] belongs 14 nM. Regarding `O=C(O)c1ccc2c(c1)nc(-c1ccc(OCc3cc(C(=O)N4CCCCC4)ccc3-c3ccc(Cl)cc3)cc1F)n2C1CCCCC1` [Example 286, 2-{4-[2-(4-chlorophenyl)-5-piperidinocarbonylbenzyloxy]-2-fluorophenyl}-1-cyclohexylbenzimidazole-5-carboxylic acid], the IC50 is 14 nM. To `O=C(O)c1ccc2c(c1)nc(-c1ccc(OCc3cc(C(=O)N4CCCC4)ccc3-c3ccc(Cl)cc3)cc1F)n2C1CCCCC1` [Example 287, 2-{4-[2-(4-chlorophenyl)-5-(1-pyrrolidinyl)carbonylbenzyloxy]-2-fluorophenyl}-1-cyclohexylbenzimidazole-5-carboxylic acid] belongs 12 nM; to `O=C(O)c1ccc2c(c1)nc(-c1ccc(OCc3cc(C(=O)NCCO)ccc3-c3ccc(Cl)cc3)cc1F)n2C1CCCCC1` [Example 288, 2-{4-[2-(4-chlorophenyl)-5-(2-hydroxyethyl)carbamoylbenzyloxy]-2-fluorophenyl}-1-cyclohexylbenzimidazole-5-carboxylic acid], 13 nM. Consider `O=C(O)c1ccc2c(c1)nc(-c1ccc(OCc3cc(C(=O)N4CCC(O)CC4)ccc3-c3ccc(Cl)cc3)cc1F)n2C1CCCCC1` [Example 289, 2-{4-[2-(4-chlorophenyl)-5-(4-hydroxypiperidino)-carbonylbenzyloxy]-2-fluorophenyl}-1-cyclohexylbenzimidazole-5-carboxylic acid], for which the IC50 is less than 10 nM.

On to `O=C(O)c1ccc2c(c1)nc(-c1ccc(OCc3cc(C(=O)N4CCOCC4)ccc3-c3ccc(Cl)cc3)cc1F)n2C1CCCCC1` [Example 290, 2-{4-[2-(4-chlorophenyl)-5-morpholinocarbonylbenzyloxy]-2-fluorophenyl}-1-cyclohexylbenzimidazole-5-carboxylic acid], for which the IC50 is 12 nM. Next, `O=C(O)c1ccc2c(c1)nc(-c1ccc(OCc3cc(C(=O)N4CCSCC4)ccc3-c3ccc(Cl)cc3)cc1F)n2C1CCCCC1` [Example 291, 2-{4-[2-(4-chlorophenyl)-5-thiomorpholinocarbonylbenzyloxy]-2-fluorophenyl}-1-cyclohexylbenzimidazole-5-carboxylic acid]: 16 nM.

On to `O=C(O)CNC(=O)c1ccc(-c2ccc(Cl)cc2)c(COc2ccc(-c3nc4cc(C(=O)O)ccc4n3C3CCCCC3)c(F)c2)c1` [Example 292, 2-{4-[3-(carboxymethylcarbamoyl)-6-(4-chlorophenyl)benzyloxy]-2-fluorophenyl}-1-cyclohexylbenzimidazole-5-carboxylic acid], for which the IC50 is 15 nM. As to `O=C(O)CCc1ccc(-c2ccc(Cl)cc2COc2ccc(-c3nc4cc(C(=O)O)ccc4n3C3CCCCC3)cc2)cc1` [Example 293, 2-{4-[2-{4-(2-carboxyethyl)phenyl}-5-chlorobenzyloxy]phenyl}-1-cyclohexylbenzimidazole-5-carboxylic acid], the IC50 is 34 nM. As to `O=C(O)c1ccc2c(c1)nc(-c1ccc(OCc3cc(Cl)ccc3-c3ccc(CO)cc3)cc1)n2C1CCCCC1` [Example 294, 2-{4-[3-chloro-6-(4-hydroxymethylphenyl)benzyloxy]phenyl}-1-cyclohexylbenzimidazole-5-carboxylic acid], the IC50 is 32 nM. As for `COCc1ccc(-c2ccc(Cl)cc2COc2ccc(-c3nc4cc(C(=O)O)ccc4n3C3CCCCC3)cc2)cc1` [Example 295, 2-{4-[3-chloro-6-(4-methoxymethylphenyl)benzyloxy]phenyl}-1-cyclohexylbenzimidazole-5-carboxylic acid], the IC50 came out at 45 nM. As for `O=C(O)c1cccc(-c2ccc(Cl)cc2COc2ccc(-c3nc4cc(C(=O)O)ccc4n3C3CCCCC3)cc2)c1` [Example 296, 2-{4-[2-(3-carboxyphenyl)-5-chlorobenzyloxy]phenyl}-1-cyclohexylbenzimidazole-5-carboxylic acid], the IC50 amounted to 34 nM. To `CSc1ccc(-c2ccc(Cl)cc2)c(COc2ccc(-c3nc4cc(C(=O)O)ccc4n3C3CCCCC3)cc2)c1` [Example 297, 2-{4-[2-(4-chlorophenyl)-5-methylthiobenzyloxy]phenyl}-1-cyclohexylbenzimidazole-5-carboxylic acid] belongs 22 nM; to `C[S+]([O-])c1ccc(-c2ccc(Cl)cc2)c(COc2ccc(-c3nc4cc(C(=O)O)ccc4n3C3CCCCC3)cc2)c1` (centres unmarked) [Example 298, 2-{4-[2-(4-chlorophenyl)-5-methylsulfinylbenzyloxy]phenyl}-1-cyclohexylbenzimidazole-5-carboxylic acid], 11 nM; to `N#Cc1ccc(-c2ccc(Cl)cc2)c(COc2ccc(-c3nc4cc(C(=O)O)ccc4n3C3CCCCC3)cc2)c1` [Example 299, 2-{4-[2-(4-chlorophenyl)-5-cyanobenzyloxy]phenyl}-1-cyclohexyl-benzimidazole-5-carboxylic acid], 18 nM. For `CN(C)C(=O)c1ccc(C(Oc2ccc(-c3nc4cc(C(=O)O)ccc4n3C3CCCCC3)c(F)c2)c2ccc(C(=O)N(C)C)cc2)cc1` [Example 301], the IC50 turned out to be 17 nM. As to `COC(=O)c1ccc2c(c1)nc(-c1ccc(OCc3cc(C(=O)N(C)C)ccc3-c3ccc(Cl)cc3)cc1F)n2C1CCCCC1` [Example 303, methyl 2-{4-[2-(4-chlorophenyl)-5-(dimethylcarbamoyl)benzyloxy]-2-fluorophenyl}-1-cyclohexylbenzimidazole-5-carboxylate], the IC50 was found to be 100 nM. As for `O=C(O)c1ccc(-c2ccc(Cl)cc2)c(COc2ccc(-c3nc4cc(C(=O)O)ccc4n3C3CCCCC3)c(F)c2)c1` [Example 305, 2-{4-[5-carboxy-2-(4-chlorophenyl)benzyloxy]-2-fluorophenyl}-1-cyclohexylbenzimidazole-5-carboxylic acid], the IC50 was found to be 10 nM. Next, `COc1ccc(-c2ccc(C(=O)O)cc2)c(COc2ccc(-c3nc4cc(C(=O)O)ccc4n3C3CCCCC3)cc2)c1` [Example 306, 2-{4-[2-(4-carboxyphenyl)-5-methoxybenzyloxy]phenyl}-1-cyclohexylbenzimidazole-5-carboxylic acid]: 13 nM; `CN(C)C(=O)c1ccc(-c2ccc(C(N)=O)cc2)c(COc2ccc(-c3nc4cc(C(=O)O)ccc4n3C3CCCCC3)cc2)c1` [Example 307, 2-{4-[2-(4-carbamoylphenyl)-5-(dimethylcarbamoyl)benzyloxy]-phenyl}-1-cyclohexylbenzimidazole-5-carboxylic acid]: 22 nM.

In the case of `Nc1ccc(-c2ccc(Cl)cc2)c(COc2ccc(-c3nc4cc(C(=O)O)ccc4n3C3CCCCC3)cc2)c1` [Example 308, 2-{4-[5-amino-2-(4-chlorophenyl)benzyloxy]phenyl}-1-cyclohexylbenzimidazole-5-carboxylic acid], the IC50 is 23 nM. Regarding `O=C(O)c1ccc(C(Oc2ccc(-c3nc4cc(C(=O)O)ccc4n3C3CCCCC3)c(F)c2)c2ccc(C(=O)O)cc2)cc1` [Example 312, 2-{4-[bis(4-carboxyphenyl)methoxy]-2-fluorophenyl}-1-cyclohexylbenzimidazole-5-carboxylic acid], the IC50 turned out to be 23 nM. To `CNC(=O)c1ccc(-c2ccc(Cl)cc2)c(COc2ccc(-c3nc4cc(C(=O)OC)ccc4n3C3CCCCC3)c(F)c2)c1` [Example 314, methyl 2-{4-[2-(4-chlorophenyl)-5-(methylcarbamoyl)benzyloxy]-2-fluorophenyl}-1-cyclohexylbenzimidazole-5-carboxylate] belongs 97 nM. To `O=C(O)c1ccc2c(c1)nc(-c1ccc(OCc3cc(Cl)ccc3-c3ccncc3)cc1)n2C1CCCCC1` [Example 315, 2-{4-[5-chloro-2-(4-pyridyl)benzyloxy]phenyl}-1-cyclohexylbenzimidazole-5-carboxylic acid hydrochloride] belongs 28 nM. `O=C(O)c1ccc2c(c1)nc(-c1ccc(OCc3cc(C(=O)NCc4ccccc4)ccc3-c3ccc(Cl)cc3)cc1)n2C1CCCCC1` [Example 316, 2-{4-[2-(4-chlorophenyl)-5-(benzylcarbamoyl)benzyloxy]phenyl}-1-cyclohexylbenzimidazole-5-carboxylic acid hydrochloride]: the IC50 was found to be 22 nM. `O=C(O)c1ccc2c(c1)nc(-c1ccc(OCc3cc(C(=O)NCC4CCCCC4)ccc3-c3ccc(Cl)cc3)cc1)n2C1CCCCC1` [Example 317, 2-{4-[2-(4-chlorophenyl)-5-(cyclohexylmethylcarbamoyl)-benzyloxy]phenyl}-1-cyclohexylbenzimidazole-5-carboxylic acid hydrochloride]: the IC50 was 32 nM. Turning to `O=C(O)c1ccc2c(c1)nc(-c1ccc(OCc3cc(C(=O)NCc4ccncc4)ccc3-c3ccc(Cl)cc3)cc1)n2C1CCCCC1` [Example 318, 2-{4-[2-(4-chlorophenyl)-5-(4-pyridylmethylcarbamoyl)-benzyloxy]phenyl}-1-cyclohexylbenzimidazole-5-carboxylic acid dihydrochloride], the IC50 came to 12 nM.
